Measured values from ChEMBL document CHEMBL1130492 (Bioorg Med Chem Lett, 1997).

Assays:
Canis familiaris [1] = species on record: Canis familiaris; assay: Percent of radioactive dose in urine and feces excreted by 0-24 hr in dogs; assay type: ADME, organism-based, Canis lupus familiaris; conditions: dog, in vivo
Rattus norvegicus [2] = species on record: Rattus norvegicus; assay: Percent of radioactive dose in urine and feces excreted in 0-24 hr by rats; assay type: ADME, organism-based; conditions: in vivo
[3] = target: D(2) dopamine receptor (Rattus norvegicus) (UniProt P61169); assay: In vitro ability to displace Dopamine D2 receptor binding to rat striatal membranes in competition experiments against [3H]spiperone at 1 uM concentration; conditions: Striatum, Membrane
D(2) dopamine receptor (Rattus norvegicus), sequence (P61169 whole entry): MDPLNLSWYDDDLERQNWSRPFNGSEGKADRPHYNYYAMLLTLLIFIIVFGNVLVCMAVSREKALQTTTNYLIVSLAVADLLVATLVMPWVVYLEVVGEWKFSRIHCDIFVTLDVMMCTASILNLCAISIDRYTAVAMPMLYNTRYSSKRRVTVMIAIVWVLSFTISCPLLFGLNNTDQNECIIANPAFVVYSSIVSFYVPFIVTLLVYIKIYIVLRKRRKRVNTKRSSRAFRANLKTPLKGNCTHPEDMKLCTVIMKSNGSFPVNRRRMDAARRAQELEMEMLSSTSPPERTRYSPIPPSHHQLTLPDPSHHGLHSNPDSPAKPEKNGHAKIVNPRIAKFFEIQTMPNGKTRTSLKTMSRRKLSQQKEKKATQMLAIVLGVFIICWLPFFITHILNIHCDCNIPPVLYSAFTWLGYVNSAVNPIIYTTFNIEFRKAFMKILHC

Rattus norvegicus [4] = assay: (§1) In vivo antipsychotic activity determined for dose ip by CAR (conditioned avoidance response) assay; assay type: functional; design: unit not given here
[5] = target: T1, 5-hydroxytryptamine receptor 1A (Rattus norvegicus) (UniProt P19327); assay: In vitro ability to displace serotonin 5-HT1A receptor binding to rat cerebral cortex in competition experiments against [3H]8-(hydroxy)dipropyl aminotetralin at 1 uM concentration; assay type: tissue-based
T1 sequence (whole entry): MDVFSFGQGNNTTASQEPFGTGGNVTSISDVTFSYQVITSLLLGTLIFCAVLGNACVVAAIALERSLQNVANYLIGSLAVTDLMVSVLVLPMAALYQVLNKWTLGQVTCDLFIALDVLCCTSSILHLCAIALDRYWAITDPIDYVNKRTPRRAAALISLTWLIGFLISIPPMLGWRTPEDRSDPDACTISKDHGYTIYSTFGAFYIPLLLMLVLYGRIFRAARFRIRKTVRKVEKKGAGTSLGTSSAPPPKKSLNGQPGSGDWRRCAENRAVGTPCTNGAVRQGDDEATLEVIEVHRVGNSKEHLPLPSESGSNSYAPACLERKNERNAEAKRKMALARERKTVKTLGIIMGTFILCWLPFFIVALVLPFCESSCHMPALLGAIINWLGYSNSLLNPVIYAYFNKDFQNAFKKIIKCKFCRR

[6] = target: Adrenergic receptor alpha-1 (Rattus norvegicus) (UniProt P15823+P23944+P43140); assay: In vitro ability to displace Alpha-1 adrenergic receptor binding to rat cerebral cortex in competition experiments against [3H]prazosin at 1 µM, expressed as % inhibition.
D(2) dopamine receptor = D(2) dopamine receptor (Rattus norvegicus, UniProt P61169); assay: In vitro ability to displace Dopamine D2 receptor binding to rat striatal membranes in competition experiments against 3H-spiperone, expressed as Ki; design: species or system Striatum, Membrane
D(2) dopamine receptor, sequence (P61169 whole entry): as the sequence (P61169 whole entry) above

[7] = target: T2, 5-hydroxytryptamine receptor 1A (Rattus norvegicus, UniProt P19327); assay: In vitro ability to displace serotonin 5-HT1A receptor binding to rat cerebral cortex in competition experiments against [3H]8-(hydroxy)dipropyl aminotetralin at 1 mg/kg concentration
T2 sequence (P19327 whole entry): T1 sequence (whole entry)

[8] = target: T3, Adrenergic receptor alpha-1 (Rattus norvegicus, UniProt P15823+P23944+P43140); assay: In vitro ability to displace Alpha-1 adrenergic receptor binding to rat cerebral cortex in competition experiments against [3H]-prazosin, expressed as Ki.
T3 sequence (P15823 whole entry): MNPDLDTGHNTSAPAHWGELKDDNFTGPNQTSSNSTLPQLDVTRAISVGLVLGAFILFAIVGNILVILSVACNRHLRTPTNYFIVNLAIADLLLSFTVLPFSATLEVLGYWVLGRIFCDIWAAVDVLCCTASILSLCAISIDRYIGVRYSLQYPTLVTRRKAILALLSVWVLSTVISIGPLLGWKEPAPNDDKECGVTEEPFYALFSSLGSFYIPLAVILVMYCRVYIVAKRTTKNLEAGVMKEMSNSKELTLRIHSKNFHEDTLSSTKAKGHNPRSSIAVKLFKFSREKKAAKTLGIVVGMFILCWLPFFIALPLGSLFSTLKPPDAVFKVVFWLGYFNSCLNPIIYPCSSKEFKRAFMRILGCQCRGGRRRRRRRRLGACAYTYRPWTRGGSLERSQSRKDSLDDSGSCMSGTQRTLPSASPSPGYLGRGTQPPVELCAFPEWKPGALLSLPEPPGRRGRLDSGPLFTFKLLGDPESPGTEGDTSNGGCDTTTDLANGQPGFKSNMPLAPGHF
T3 sequence (P23944 whole entry): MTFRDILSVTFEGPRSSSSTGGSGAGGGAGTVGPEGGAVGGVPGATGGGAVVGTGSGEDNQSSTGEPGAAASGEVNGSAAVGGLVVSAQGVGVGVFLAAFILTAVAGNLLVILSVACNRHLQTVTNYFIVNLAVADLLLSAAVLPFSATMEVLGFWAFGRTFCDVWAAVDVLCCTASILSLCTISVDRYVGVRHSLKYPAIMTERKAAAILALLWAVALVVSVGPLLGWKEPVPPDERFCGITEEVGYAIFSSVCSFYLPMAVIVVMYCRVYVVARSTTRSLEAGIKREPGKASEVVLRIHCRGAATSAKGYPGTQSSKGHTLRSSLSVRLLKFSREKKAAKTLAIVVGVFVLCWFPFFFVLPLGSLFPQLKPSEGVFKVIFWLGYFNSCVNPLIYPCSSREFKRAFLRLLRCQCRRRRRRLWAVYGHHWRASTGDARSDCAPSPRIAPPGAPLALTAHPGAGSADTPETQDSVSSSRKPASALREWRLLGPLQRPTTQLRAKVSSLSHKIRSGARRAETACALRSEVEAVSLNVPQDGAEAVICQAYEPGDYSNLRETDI
T3 sequence (P43140 whole entry): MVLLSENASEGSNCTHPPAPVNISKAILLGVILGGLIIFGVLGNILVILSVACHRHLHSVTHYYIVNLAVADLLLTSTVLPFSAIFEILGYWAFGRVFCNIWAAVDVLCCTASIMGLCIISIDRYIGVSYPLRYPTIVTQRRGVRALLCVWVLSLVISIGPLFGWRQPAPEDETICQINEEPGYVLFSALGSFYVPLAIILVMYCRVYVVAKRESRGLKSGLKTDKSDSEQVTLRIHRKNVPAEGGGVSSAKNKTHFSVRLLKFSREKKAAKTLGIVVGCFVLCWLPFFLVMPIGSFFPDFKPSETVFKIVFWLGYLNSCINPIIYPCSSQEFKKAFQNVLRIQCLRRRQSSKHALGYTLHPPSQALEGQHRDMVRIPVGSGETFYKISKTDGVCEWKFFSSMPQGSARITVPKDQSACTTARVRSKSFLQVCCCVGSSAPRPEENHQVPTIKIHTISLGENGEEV

Canis familiaris [9] = species on record: Canis familiaris; assay: Percent of radioactive dose in urine and feces excreted by 0-24 hr in dogs; NA is <10% inhibition at 1 uM for binding data; assay type: ADME, organism-based, Canis lupus familiaris; conditions: dog, in vivo
Rattus norvegicus [10] = species on record: Rattus norvegicus; assay: Percent of radioactive dose in urine and feces excreted in 0-24 hr by rats; NA is <10% inhibition at 1 uM for binding data; assay type: ADME, organism-based; conditions: in vivo
[11] = target: T2, 5-hydroxytryptamine receptor 1A; assay: In vitro ability to displace serotonin 5-HT1A receptor binding to rat cerebral cortex in competition experiments against [3H]8-(hydroxy)dipropyl aminotetralin at 15 mg/kg concentration
[12] = target: T3, Adrenergic receptor alpha-1; assay: In vitro ability to displace Alpha-1 adrenergic receptor binding to rat cerebral cortex in competition experiments against [3H]prazosin […], expressed as Ki.
Canis familiaris [13] = species on record: Canis familiaris; assay: Percent of radioactive dose in urine and feces excreted in 0-24 hr by dogs; NA is <10% inhibition at 1 uM for binding data; assay type: ADME, organism-based, Canis lupus familiaris; conditions: dog, in vivo
Canis familiaris [14] = species on record: Canis familiaris; assay: Percent of radioactive dose in urine and faeces excreted in 0-24 hr by dogs; assay type: ADME, organism-based, Canis lupus familiaris, Urine/Feces; conditions: dog, in vivo
Rattus norvegicus [15] = species on record: Rattus norvegicus; assay: Percent of radioactive dose in urine and faeces excreted in 0-24 hr by rats; assay type: ADME, organism-based, Urine/Feces; conditions: in vivo
Rattus norvegicus [16] = assay: as §1; assay type: functional

| Compound | Dose (Canis familiaris [1]) | Dose (Rattus norvegicus [2]) | CAR (Rattus norvegicus [4]) | Ki (D(2) dopamine receptor) | Dose (Rattus norvegicus [10]) | Ki [11] | Ki [12] | other results |
| --- | --- | --- | --- | --- | --- | --- | --- | --- |
| O=C(O)c1cccc(C(=O)N2CCCCC2)c1 | 8% | 11% | -3 | – | – | – | – | inhibition [3]: < 10%; inhibition [5]: < 10%; inhibition [6]: < 10% |
| CC(C)Oc1ccccc1N1CCN(Cc2cccc(C(=O)N3CCC(O)CC3)c2)CC1 | 3% | 3% | -76 | 11 nM | – | – | – | Ki [7]: 7.8 nM; Ki [8]: 3.6 nM |
| CC(C)Oc1ccccc1N1CCN(Cc2cccc(C(=O)N3CCCC(O)C3)c2)CC1 (stereo not given) | – | – | -96 | 8.8 nM | < 2% | 6.8 nM | 21 nM | Dose (Canis familiaris [9]): < 2% |
| CC(C)Oc1cc(O)ccc1N1CCN(Cc2cccc(C(=O)N3CCCCC3)c2)CC1 | 3% | 13% | -10 | – | – | – | – | – |
| CC(C)Oc1ccccc1N1CCN(Cc2cccc(C(=O)N3CCCCC3O)c2)CC1 (stereo not given) | – | – | -64 | 9 nM | < 2% | 3 nM | 4 nM | Dose (Canis familiaris [13]): < 2% |
| CC(C)Oc1ccccc1N1CCN(Cc2cccc(C(=O)N3CCCCC3)c2)CC1 [MAZAPERTINE] | – | – | – | – | – | – | – | Dose (Canis familiaris [14]): 5%; Dose (Rattus norvegicus [15]): 4%; CAR (Rattus norvegicus [16]): -92 |
